# According to paper PMC3750913 (BMC Microbiology, 2013):
# Like-named read-outs stand apart in the source and are kept apart here.
# Columns and labels:
# XTT cytotoxicity assay = format: cell-based
# Description: Cells (1 × 10^4 per well of 96-well plate) were treated with the test compounds for 3 days. Treatment effects on cell viability (%) and the 50% cytotoxic concentration (CC50) values of the test compounds were determined based on the XTT (2,3-bis[2-methoxy-4-nitro-5-sulfophenyl]-5-phenylamino)-carbonyl]-2H-tetrazolium hydroxide) assay as previously reported.
# VSV = format: cell-based, vesicular stomatitis virus; conditions: A549 cells
# HCV [1] = test: Viral penetration assay; format: cell-based, hepatitis C virus; conditions: for inhibition at 50 µM: Hepatitis C virus, Huh7.5, read-out: Window of antiviral effects: Penetration, inhibitory effect relative to DMSO control
# HCMV [2] = test: Viral attachment assay, method 1 (host cell infection); format: cell-based, human cytomegalovirus; conditions: Human betaherpesvirus 5, HEL, read-out: Window of antiviral effects: Attachment Method 1, inhibitory effect relative to DMSO control
# DENV-2 [3] = test: Dose-response antiviral assay (immunohistochemical staining plaque assay); format: cell-based, dengue virus type 2; conditions: DENV-2, Vero cells
# MV [4] = test: microbe, parasite or virus in culture; format: cell-based, measles virus; conditions: for EC50: MV in CHO-SLAM cells, co-treatment with viral inoculum, read-out: Antiviral effect EC50; for SI (selectivity index, CC50/EC50): MV, CHO-SLAM cells
# MV [5] = test: Analysis of drug effects post viral entry; format: cell-based, measles virus; conditions: for protection, treatment post-infection: MV, Figure 6
# DENV-2 [6] = test: Viral penetration assay; format: cell-based, dengue virus type 2; conditions: DENV-2; shift 4°C to 37°C; Figure 4
# HCMV [7] = test: Analysis of drug effects post viral entry; format: cell-based, human cytomegalovirus; conditions: for protection, treatment post-infection: HCMV, Figure 6
# RSV [8] = test: Viral penetration assay; format: cell-based, respiratory syncytial virus
# HCMV [9] = test: Viral cell-to-cell spread assay; format: cell-based, human cytomegalovirus; conditions: for effect on viral plaque size (cell-to-cell spread): HCMV, Figure 7
# RSV [10] = test: Viral inactivation assay; format: cell-based, respiratory syncytial virus; conditions: for block of infection after pre-incubation of free virus with compound: RSV, CHLA 1 μM, PUG 2 μM, Figure 3
# HCMV [11] = test: Viral penetration assay; format: cell-based, human cytomegalovirus; conditions: for protection of the host cell from infection during virus penetration: HCMV, shift 4°C to 37°C, Figure 4
# DENV-2 [12] = test: Viral attachment assay, method 2 (virus-specific cellular ELISA); format: cell-based, dengue virus type 2; conditions: DENV-2 MOI 5, ELISA, 4°C; highest inhibitory concentration of the compounds
# [13] = cited from earlier work
# RSV [14] = test: Viral attachment assay, method 2 (virus-specific cellular ELISA); format: cell-based, respiratory syncytial virus; conditions: RSV MOI 5, ELISA, 4°C; highest inhibitory concentration of the compounds
# HCV [15] = test: Viral inactivation assay; format: cell-based
# MV [16] = test: Viral penetration assay; format: cell-based, measles virus
# HCV [17] = format: cell-based, hepatitis C virus; conditions: Huh-7.5 cells
# [18] = Measles morbillivirus, read-out: Window of antiviral effects: Post-infection, inhibitory effect relative to DMSO control
# [19] = human respiratory syncytial virus, HEp-2, read-out: Window of antiviral effects: Penetration, inhibitory effect relative to DMSO control
# [20] = Human betaherpesvirus 5, HEL, read-out: Window of antiviral effects: Cell-to-cell spread, inhibitory effect relative to DMSO control
# [21] = human respiratory syncytial virus, HEp-2, read-out: Window of antiviral effects: Free particle, inhibitory effect relative to DMSO control
# [22] = Human betaherpesvirus 5, HEL, read-out: Window of antiviral effects: Penetration, inhibitory effect relative to DMSO control
# [23] = Hepatitis C virus, Huh7.5, read-out: Window of antiviral effects: Free particle, inhibitory effect relative to DMSO control
# [24] = Measles morbillivirus, read-out: Window of antiviral effects: Penetration, inhibitory effect relative to DMSO control
Compound,"SI (selectivity index, CC50/EC50) (VSV)",inhibition at 50 µM (HCV [1]) [%],"SI (selectivity index, CC50/EC50) (DENV-2 [3])",EC50 (MV [4]) [µM],"SI (selectivity index, CC50/EC50) (MV [4])",EC50 (MV [4]; Measles morbillivirus) [µM],"protection, treatment post-infection (MV [5])","protection, treatment post-infection (HCMV [7])",effect on viral plaque size (cell-to-cell spread) (HCMV [9]),block of infection after pre-incubation of free virus with compound (RSV [10]),protection of the host cell from infection during virus penetration (HCMV [11]),"Window of antiviral effects: Attachment Method 2, inhibitory effect relative to DMSO control (DENV-2 [12])","Window of antiviral effects: Attachment Method 2, inhibitory effect relative to DMSO control (RSV [14])",inhibition at 50 µM (HCV [15]; [23]) [%],"SI (selectivity index, CC50/EC50) (HCV [17])",further results
"O=C1O[C@H]2[C@@H]3OC(=O)c4cc(O)c(O)c(O)c4-c4c(O)c(O)c5oc(=O)c6c(c(O)c(O)c7oc(=O)c4c5c76)-c4c(cc(O)c(O)c4O)C(=O)OC[C@H]3OC(O)[C@@H]2OC(=O)c2cc(O)c(O)c(O)c2-c2c1cc(O)c(O)c2O (mixture of isomers) [PUG, punicalagin]",8.62,> 75,19.27,25.5 ± 2.94,11.13,< 35,80 – 100%,80 – 100%,near initial size,60 – 80%,50 – 90%,+++ (+++ > 75%),+++ (+++ > 75%),> 75,13.31,"CC50 at 3 days (XTT cytotoxicity assay; African green monkey, Vero cells, XTT assay, 3 days treatment, read-out: CC50): 151 ± 9.31 µM; CC50 at 3 days (XTT cytotoxicity assay; Chinese hamster, CHO-SLAM cells, XTT assay, 3 days treatment, read-out: CC50): 284 ± 11.5 µM; CC50 at 3 days (XTT cytotoxicity assay; human, A549 cells, 3 days treatment): 319 ± 4.99 µM; CC50 at 3 days (XTT cytotoxicity assay; human, HEL cells, 3 days treatment): 299 ± 9.14 µM; CC50 at 3 days (XTT cytotoxicity assay; human, HEp-2 cells, 3 days treatment): 265 ± 23.7 µM; CC50 at 3 days (XTT cytotoxicity assay; human, Huh-7.5 cells, 3 days treatment): 223 ± 3.41 µM; protection of the host cell from infection during virus penetration (HCV [1]; HCV, shift 4°C to 37°C, Figure 4): 50 – 90%; inhibition at 40 µM (HCMV [2]): 50 to 75%; inhibition at 50 µM (MV [5]; [18]): > 75%; protection of the host cell from infection during virus penetration (DENV-2 [6]): 50 – 90%; inhibition at 40 µM (HCMV [7]; Human betaherpesvirus 5, HEL, read-out: Window of antiviral effects: Post-infection, inhibitory effect relative to DMSO control): > 75%; protection of the host cell from infection during virus penetration (RSV [8]; RSV, shift 4°C to 37°C, Figure 4): 50 – 90%; inhibition at 2 µM (RSV [8]; [19]): > 75%; inhibition at 40 µM (HCMV [9]; [20]): > 75%; inhibition at 2 µM (RSV [10]; [21]): > 75%; inhibition at 40 µM (HCMV [11]; [22]): 50 to 75%; in vivo toxicity ([13]; In vivo toxicological and metabolic studies, ref [67], [68]): minimal toxicity; inhibition at 50 µM (HCV [15]; Hepatitis C virus, read-out: inhibition of infection after pre-incubation of free virus with compound): ~100%; protection of the host cell from infection during virus penetration (MV [16]; MV, shift 4°C to 37°C, Figure 4): 50 – 90%; inhibition at 50 µM (MV [16]; [24]): > 75%"
"O=C(O)C[C@@H]1C(=O)O[C@H]2[C@@H]3OC(=O)c4cc(O)c(O)c(O)c4-c4c(cc(O)c(O)c4O)C(=O)OC[C@H]2O[C@@H](OC(=O)c2cc(O)c(O)c(O)c2)[C@@H]3OC(=O)c2cc(O)c(O)c3c2[C@H]1[C@H](O)C(=O)O3 [CHLA, chebulagic acid]",5.17,> 75,12.18,34.4 ± 4.35,10.22,< 35,80 – 100%,80 – 100%,near initial size,60 – 80%,50 – 90%,+++ (+++ > 75%),+++ (+++ > 75%),> 75,19.54,CC50 at 3 days (XTT cytotoxicity assay; African green monkey): 160 ± 7.46 µM; CC50 at 3 days (XTT cytotoxicity assay; Chinese hamster): 352 ± 4.54 µM; inhibition at 90 µM (MV [5]; [18]): > 75%; inhibition at 1 µM (RSV [8]; [19]): 50 to 75%; inhibition at 60 µM (HCMV [9]; [20]): > 75%; inhibition at 1 µM (RSV [10]; [21]): > 75%; inhibition at 60 µM (HCMV [11]; [22]): 50 to 75%; in vivo toxicity ([13]; in vivo): minimal toxicity; inhibition at 50 µM (HCV [15]; Hepatitis C virus; read-out: inhibition of infection after pre-incubation of free virus with compound): ~100%; inhibition at 90 µM (MV [16]; [24]): 50 to 75%
